From patent US20200085705A1, “Method of Encapsulating Compounds” (AGENCY FOR SCIENCE, TECHNOLOGY AND RESEARCH, priority 2016, published 2020)

Assay: Titration of polyelectrolytes and ICs with MG (zeta potential, Dh, I/c)
Type: physicochemical
Details: titration of PAA-b-PEO, PArg and ICs with MG, 10 mM NaCl
Experimental: Dynamic (DLS) and static (SLS) light scattering measurements were performed with Brookhaven Instruments, 488 nm and 633 nm, 15 W Ion Laser System, equipped with Avalanche Photodiode Detector; DLS measurements were conducted at 90° detection angle. The light scattering titrations were performed with Malvern Zetasizer equipped with auto-titrator, at detection angle of 173°. Samples from loading experiments were analyzed with Shimadzu UV spectrophotometer (UV-3600).
MG was loaded into the ICs by simple mixing the respective solutions at predetermined ratios. FIG. 3 presents the results of titrations of the polyelectrolytes and ICs consisting of these polyelectrolytes with MG. Upon mixing, we observed no change in zeta potential except for slight increase in case of PArg at the beginning of titration. […] We observed small changes in hydrodynamic diameter (DO and normalized scattering intensity (I/c) of the aggregates, indicating bonding. This was later confirmed with NR studies.

SMILES: COc1ccc(O[C@@H]2O[C@H](CO)[C@@H](O)[C@H](O)[C@H]2O)cc1 [MG, 4-methoxyphenyl β-D-glucopyranoside]
- chargeability of MG (zeta potential upon mixing): not chargeable
